Laboratory results: patent US11566007B2, “Ras inhibitors” (Revolution Medicines, Inc., priority 2019, dated 2023)

How the values were obtained:
[1] = system: NCI-H358 (K-Ras G12C); assay: CellTiter-Glo cell viability assay, NCI-H358; format: cell-based, human; settings: Homo sapiens, NCI-H358, 120 h, NCI-H358, 5-day treatment; class symbols; read-out: Additional H358 Cell Viability assay data (K-Ras G12C, IC50)
In short: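 Cells seeded, compound added directly, 5-day exposure. Plates to RT ~30 min, CellTiter-Glo luminescence read. Normalized to DMSO avg (x100); 4-parameter logistic fit.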

[2] = biological target: KRAS G12S (Homo sapiens (Human), UniProt P01116+P62937, G12S); assay: Ras-Raf (BRAF RBD) disruption / FRET / MOA assay, KRAS G12S; format: biochemical; settings: Ras-Raf disruption/FRET/MOA assay; class symbols; read-out: KRAS G12S FRET data IC50
KRAS G12S, sequence (P01116-2 other isoform, or with tags, fused parts or gaps G12S): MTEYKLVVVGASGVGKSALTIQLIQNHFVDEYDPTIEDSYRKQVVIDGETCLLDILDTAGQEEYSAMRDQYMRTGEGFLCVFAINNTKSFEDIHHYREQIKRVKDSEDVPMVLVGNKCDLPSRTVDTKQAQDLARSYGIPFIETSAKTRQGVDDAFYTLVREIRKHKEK
KRAS G12S, sequence (P62937 whole entry): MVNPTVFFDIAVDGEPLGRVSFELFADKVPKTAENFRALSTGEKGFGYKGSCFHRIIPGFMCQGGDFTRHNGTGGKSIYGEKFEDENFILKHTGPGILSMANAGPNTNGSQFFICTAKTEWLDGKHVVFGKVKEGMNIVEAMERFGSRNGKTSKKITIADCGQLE
In short: (§1)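 A 10-point, 3-fold dilution series topping at 30 μM final was incubated 3 h at 25° C with the Ras/cyclophilin A/BRAF RBD mixture.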

[3] = biological target: NRAS G12C (Homo sapiens (Human), UniProt P01111+P62937, G12C); assay: Ras-Raf (BRAF RBD) disruption / FRET / MOA assay, NRAS G12C; format: biochemical; settings: read-out: IC50* NRAS G12C FRET data
NRAS G12C, sequence (P01111 whole entry G12C): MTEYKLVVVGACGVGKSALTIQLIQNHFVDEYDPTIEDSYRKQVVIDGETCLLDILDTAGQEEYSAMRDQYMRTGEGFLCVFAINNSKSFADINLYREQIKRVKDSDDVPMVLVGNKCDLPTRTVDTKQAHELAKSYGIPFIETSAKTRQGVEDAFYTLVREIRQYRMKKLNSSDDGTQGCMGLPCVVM
NRAS G12C, sequence (P62937 whole entry): as the sequence (P62937 whole entry) above
In short: as §1

[4] = biological target: K-Ras G12C (Homo sapiens (Human), UniProt P01116+P62937, G12C); assay: Ras-Raf (BRAF RBD) disruption / FRET / MOA assay, KRAS G12C; format: biochemical; settings: KRAS G12C; Ras-Raf disruption/FRET/MOA assay; read-out: IC50* KRAS G12C FRET data
K-Ras G12C, sequence (P01116-2 other isoform, or with tags, fused parts or gaps G12C): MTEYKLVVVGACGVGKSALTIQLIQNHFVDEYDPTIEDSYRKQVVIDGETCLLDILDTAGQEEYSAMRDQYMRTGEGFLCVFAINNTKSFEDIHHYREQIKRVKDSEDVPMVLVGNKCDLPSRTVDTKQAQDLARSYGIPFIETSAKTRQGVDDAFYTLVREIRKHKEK
K-Ras G12C, sequence (P62937 whole entry): as the sequence (P62937 whole entry) above
In short: as §1

[5] = biological target: KRAS G12D (Homo sapiens (Human), UniProt P01116+P62937, G12D); assay: Ras-Raf (BRAF RBD) disruption / FRET / MOA assay, KRAS G12D; format: biochemical; settings: Ras-Raf disruption/FRET/MOA assay; class symbols; read-out: KRAS G12D FRET data IC50
KRAS G12D, sequence (P01116-2 other isoform, or with tags, fused parts or gaps G12D): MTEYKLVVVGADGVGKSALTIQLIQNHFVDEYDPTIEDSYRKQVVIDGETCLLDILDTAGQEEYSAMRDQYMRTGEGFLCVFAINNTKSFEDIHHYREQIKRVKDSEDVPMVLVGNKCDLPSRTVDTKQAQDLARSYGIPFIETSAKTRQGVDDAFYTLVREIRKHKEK
KRAS G12D, sequence (P62937 whole entry): as the sequence (P62937 whole entry) above
In short: as §1

[6] = biological target: NRAS Q61R (Homo sapiens (Human), UniProt P01111+P62937, Q61R); assay: Ras-Raf (BRAF RBD) disruption / FRET / MOA assay, NRAS Q61R; format: biochemical; settings: NRAS Q61R; Ras-Raf disruption/FRET/MOA assay; read-out: IC50* NRAS Q61R FRET data
NRAS Q61R, sequence (P01111 whole entry Q61R): as the sequence (P01111 whole entry G12C) above, with C12G, Q61R counted along it
NRAS Q61R, sequence (P62937 whole entry): as the sequence (P62937 whole entry) above
In short: (§2)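 Compounds (30 μM top final, 10-point 3-fold dilutions) incubated 3 h at 25° C with nucleotide-loaded Ras, cyclophilin A and BRAF RBD. Detection with 10 nM anti-His Eu-W1024 and 50 nM anti-GST allophycocyanin over another 1.5 h. Lowered TR-FRET ratio relative to DMSO wells gives IC50.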

[7] = biological target: NRAS Q61K (Homo sapiens (Human), UniProt P01111+P62937, Q61K); assay: Ras-Raf (BRAF RBD) disruption / FRET / MOA assay, NRAS Q61K; format: biochemical; settings: NRAS Q61K; Ras-Raf disruption/FRET/MOA assay; read-out: IC50* NRAS Q61K FRET data
NRAS Q61K, sequence (P01111 whole entry Q61K): as the sequence (P01111 whole entry G12C) above, with C12G, Q61K counted along it
NRAS Q61K, sequence (P62937 whole entry): as the sequence (P62937 whole entry) above
In short: as §2

Row | SMILES | IC50 [1] | IC50 [2] | IC50 [3] | IC50 [4] | IC50 [5] | IC50 [6] | IC50 [7]
1 | C=CC(=O)Nc1ccc(C(=O)N(C)[C@H](C(=O)N[C@H]2Cc3cc(O)cc(c3)-c3ccc4c(c3)c(c(-c3cccnc3[C@H](C)OC)n4CC)CC(C)(C)COC(=O)[C@@H]3CCCN(N3)C2=O)C(C)C)nc1 (atropisomer, axis not shown) [Example A252] | 10 to 100 nM | 100 to 1000 nM | 10 to 100 nM | 10 to 100 nM | 1000 to 10000 nM | 1000 to 10000 nM | 1000 to 10000 nM
2 | C=CC(=O)N1CCN(C(=O)N(C)[C@H](C(=O)N[C@H]2Cc3cc(O)cc(c3)-c3ccc4c(c3)c(c(-c3cccnc3[C@H](C)OC)n4CC)CC(C)(C)COC(=O)[C@@H]3CCCN(N3)C2=O)C(C)C)CC1 (atropisomer, axis not shown) [Example A262] | 10 to 100 nM | 10 to 100 nM | 10 to 100 nM | 10 to 100 nM | 100 to 1000 nM | 100 to 1000 nM | 10 to 100 nM
3 | C=CS(=O)(=O)N1CC2(CCN([C@H](C(=O)N[C@H]3Cc4cc(O)cc(c4)-c4ccc5c(c4)c(c(-c4cccnc4[C@H](C)OC)n5CC)CC(C)(C)COC(=O)[C@@H]4CCCN(N4)C3=O)C(C)C)C2=O)C1 (atropisomer, axis not shown) [Example A297] | 10 to 100 nM | 100 to 1000 nM | < 10 nM | 10 to 100 nM | 1000 to 10000 nM | 100 to 1000 nM | 10 to 100 nM
4 | C=CC(=O)N1CC[C@H](C(=O)N(C)[C@H](C(=O)N[C@H]2Cc3cccc(c3)-c3ccc4c(c3)c(c(-c3cccnc3[C@H](C)OC)n4CC(F)(F)F)CC(C)(C)COC(=O)[C@@H]3CCCN(N3)C2=O)C(C)C)C1 (atropisomer, axis not shown) [Example A332] | < 10 nM | 1000 to 10000 nM | 10 to 100 nM | 10 to 100 nM | 1000 to 10000 nM | 1000 to 10000 nM | 1000 to 10000 nM
5 | C=CC(=O)N1CC[C@H](C(=O)N(C)[C@H](C(=O)N[C@H]2Cc3cc(F)cc(c3)-c3ccc4c(c3)c(c(-c3cccnc3[C@H](C)OC)n4CC)CC(C)(C)COC(=O)[C@@H]3CCCN(N3)C2=O)C(C)C)C1 (atropisomer, axis not shown) [Example A342] | 10 to 100 nM | 1000 to 10000 nM | 100 to 1000 nM | 10 to 100 nM | 1000 to 10000 nM | 1000 to 10000 nM | 1000 to 10000 nM
6 | CCn1c(-c2cccnc2[C@H](C)OC)c2c3cc(ccc31)-c1cccc(c1)C[C@H](NC(=O)[C@@H](COC1CN(C(=O)C#CC(C)(C)N3CCC3)C1)C(C)C)C(=O)N1CCC[C@H](N1)C(=O)OCC(C)(C)C2 (atropisomer, axis not shown) [Example A346] | < 10 nM | > 10000 nM | 10 to 100 nM | < 10 nM | > 10000 nM | > 10000 nM | > 10000 nM
7 | CO[C@@H](C)c1ncccc1-c1c2c3cc(ccc3n1CC(F)(F)F)-c1cc(F)cc(c1)C[C@H](NC(=O)[C@@H](COC1CN(C(=O)C#CC(C)(C)N(C)C)C1)C(C)C)C(=O)N1CCC[C@H](N1)C(=O)OCC(C)(C)C2 (atropisomer, axis not shown) [Example A348] | < 10 nM | 1000 to 10000 nM | < 10 nM | < 10 nM | > 10000 nM | > 10000 nM | > 10000 nM
8 | CCn1c(-c2cccnc2[C@H](C)OC)c2c3cc(ccc31)-c1cccc(c1)C[C@H](NC(=O)[C@H](C(C)C)N1CO[C@]3(CCN(C(=O)C#CC(C)(C)N4CCC4)C3)C1=O)C(=O)N1CCC[C@H](N1)C(=O)OCC(C)(C)C2 (atropisomer, axis not shown) [Example A351] | < 10 nM | 100 to 1000 nM | < 10 nM | < 10 nM | 1000 to 10000 nM | 1000 to 10000 nM | 1000 to 10000 nM
9 | C=CC(=O)N1CC[C@@]2(CCN(C(=O)N(C)[C@H](C(=O)N[C@H]3Cc4nc(cs4)-c4ccc5c(c4)c(c(-c4cccnc4[C@H](C)OC)n5CC)CC(C)(C)COC(=O)[C@@H]4CCCN(N4)C3=O)C(C)C)C2)C1 (atropisomer, axis not shown) [Example A367] | 10 to 100 nM | 10 to 100 nM | 10 to 100 nM | 10 to 100 nM | 100 to 1000 nM | 10 to 100 nM | 10 to 100 nM
10 | C=CC(=O)N(C)CC1CN(C(=O)N(C)[C@H](C(=O)N[C@H]2Cc3nc(cs3)-c3ccc4c(c3)c(c(-c3cccnc3[C@H](C)OC)n4CC)CC(C)(C)COC(=O)[C@@H]3CCCN(N3)C2=O)C(C)C)C1 (atropisomer, axis not shown) [Example A368] | < 10 nM | 100 to 1000 nM | 10 to 100 nM | 10 to 100 nM | 100 to 1000 nM | 10 to 100 nM | 10 to 100 nM
11 | C=CC(=O)N1CC[C@]2(C1)OCN([C@H](C(=O)N[C@H]1Cc3cccc(c3)-c3ccc4c(c3)c(c(-c3cccnc3[C@H](C)OC)n4CC)CC(C)(C)COC(=O)[C@@H]3CCCN(N3)C1=O)C(C)C)C2=O (atropisomer, axis not shown) [Example A371] | < 10 nM | 1000 to 10000 nM | 10 to 100 nM | 10 to 100 nM | > 10000 nM | > 10000 nM | > 10000 nM
12 | CO[C@@H](C)c1ncccc1-c1c2c3cc(ccc3n1CC(F)(F)F)N1CCO[C@@H](C[C@H](NC(=O)[C@@H](COC3CN(C(=O)C#CC(C)(C)N(C)C)C3)C(C)C)C(=O)N3CCC[C@H](N3)C(=O)OCC(C)(C)C2)C1 (atropisomer, axis not shown) [Example A375, (2R)-2-(((1-(4-(dimethylamino)-4-methylpent-2-ynoyl)azetidin-3-yl)oxy)methyl)-N-((2^2S,6^3S,4S)-1^2-(2-((S)-1-methoxyethyl)pyridin-3-yl)-10,10-dimethyl-5,7-dioxo-1^1-(2,2,2-trifluoroethyl)-6^1,6^2,6^3,6^4,6^5,6^6-hexahydro-1^1H-8-oxa-2(4,2)-morpholina-1(5,3)-indola-6(1,3)-pyridazinacycloundecaphane-4-yl)-3-methylbutanamide] | < 10 nM | > 10000 nM | < 10 nM | < 10 nM | > 10000 nM | > 10000 nM | > 10000 nM
13 | C=CC(=O)N(C)[C@@H]1CCCN(C(=O)N(C)[C@H](C(=O)N[C@H]2Cc3nc(cs3)-c3ccc4c(c3)c(c(-c3cccnc3[C@H](C)OC)n4CC)CC(C)(C)COC(=O)[C@@H]3CCCN(N3)C2=O)C(C)C)C1 (atropisomer, axis not shown) [Example A382] | < 10 nM | 10 to 100 nM | 10 to 100 nM | 10 to 100 nM | 100 to 1000 nM | 10 to 100 nM | 10 to 100 nM
14 | C=CC(=O)N(C)C1CCN(C(=O)N(C)[C@H](C(=O)N[C@H]2Cc3nc(cs3)-c3ccc4c(c3)c(c(-c3cccnc3[C@H](C)OC)n4CC)CC(C)(C)COC(=O)[C@@H]3CCCN(N3)C2=O)C(C)C)CC1 (atropisomer, axis not shown) [Example A383] | < 10 nM | 10 to 100 nM | 10 to 100 nM | 10 to 100 nM | 100 to 1000 nM | 10 to 100 nM | 10 to 100 nM
